Measured values reported in US9987209B2, “Multi-functional composition for cosmetic formulations” (Arch Chemicals, Inc., priority 2013, dated 2018).
Converted amounts (≈) assume the structure as drawn.

How the values were obtained:
Assay in all cases: minimum inhibitory concentration (MIC), microtiter broth dilution
Type in all cases: cell-based
[1] = system: Pseudomonas aeruginosa ATCC 9027; details: Table 2, ppm per product, stock solutions in alcohol, 35° C. for 2 days; for MIC: Pseudomonas aeruginosa, ATCC9027, 48 h, read-out: minimum inhibitory concentration (MIC), Ps. aeruginosa
Experimental: (§1) The following compositions were formulated and tested for antimicrobial efficacy. In particular, the compositions were tested for minimum inhibitory concentration (MIC).
(§2) Staphylococcus aureus ATCC 6538, Pseudomonas aeruginosa ATCC 9027, Klebsiella pneumonia ATCC 4352, Burkholderia cepacia ATCC 25416, Enterobacter gergoviae ATCC 33028, Candida albicans ATCC 10231, Aspergillus brasiliensis ATCC 16404, and 2 Penicillium sp. were revived from refrigerated slants and plated on TSA plates for bacteria, SDA plates for yeast, and PDA plates for mold. The broth media used for MIC determination on microtiter plates were TSB for bacteria and SDB for fungi.
(§3) All prepared solutions were considered as products and were tested at the concentration starting at 10,000 ppm per product. Samples were diluted with 2-fold serial dilution into the appropriate broth media on microtiter plates. The bacterial inoculum at concentration of 1×10^6 CFUs/mL and fungal inoculum at concentration of 1×10^5 cells or spores/mL were suspended in regular strength broth and added to the wells in 1:1 ratio to the sample/medium mixtures on microtiter plates. The final concentration of bacteria was 5×10^5 CFUs/mL; the final concentration of fungi was 5×10^4 cells or spores/mL. Bacterial plates were incubated at 35° C. for 2 days and fungal plates were incubated at 28° C. for 5 days before reading results.
(§4) In this example, two compositions made according to the present disclosure were tested for minimum inhibitory concentration (MIC) as described in Example No. 1. In this example, the first sample tested was the same as Sample No. 4 described above in Example No. 1. The second sample (Sample No. 8) was identical to Sample No. 4 except 1,3 propanediol was replaced with 1,5 pentanediol. […]

[2] = system: Staphylococcus aureus ATCC 6538; details: Table 2, ppm per product, stock solutions in alcohol, 35° C. for 2 days; for MIC: Staphylococcus aureus, ATCC6538, 48 h, read-out: minimum inhibitory concentration (MIC), S. aureus
Experimental: as §1, §2, §3, §4

[3] = system: Aspergillus brasiliensis ATCC 16404; details: Table 2, ppm per product, stock solutions in alcohol, 28° C. for 5 days; for MIC: Aspergillus brasiliensis, ATCC16404, 120 h
Experimental: as §1, §2, §3, §4

[4] = system: Candida albicans ATCC 10231; details: Table 2, ppm per product, stock solutions in alcohol, 28° C. for 5 days; for MIC: Candida albicans, ATCC10231, 120 h
Experimental: as §1, §2, §3, §4

[5] = system: Klebsiella pneumonia ATCC 4352; details: Table 2, ppm per product, stock solutions in alcohol, 35° C. for 2 days; for MIC: Klebsiella pneumoniae, ATCC4352, 48 h, read-out: minimum inhibitory concentration (MIC), K. pneumonia
Experimental: as §1, §2, §3

Penicillium sp. = details: Table 2, ppm per product, stock solutions in alcohol, 28° C. for 5 days; for MIC: Penicillium, 120 h
Experimental: as §1, §2, §3

[6] = system: Enterobacter gergoviae ATCC 33028; details: Table 2, ppm per product, stock solutions in alcohol, 35° C. for 2 days; for MIC: Pluralibacter gergoviae, ATCC33028, 48 h, read-out: minimum inhibitory concentration (MIC), E. gergoviae
Experimental: as §1, §2, §3

[7] = system: Burkholderia cepacia ATCC 25416; details: Table 2, ppm per product, stock solutions in alcohol, 35° C. for 2 days; for MIC: Burkholderia cepacia, ATCC25416, 48 h, read-out: minimum inhibitory concentration (MIC), B. cepacia
Experimental: as §1, §2, §3

Compound	MIC [1]	MIC [2]	MIC [3]	MIC [4]	MIC [5]	MIC (Penicillium sp.)	MIC [6]	MIC [7]	minimum inhibitory concentration (MIC), Ps. aeruginosa [1]	minimum inhibitory concentration (MIC), S. aureus [2]	minimum inhibitory concentration (MIC), A. brasiliensis [3]	minimum inhibitory concentration (MIC), C. albicans [4]	minimum inhibitory concentration (MIC), K. pneumonia [5]	minimum inhibitory concentration (MIC), Penicillium sp. (Penicillium sp.)	minimum inhibitory concentration (MIC), E. gergoviae [6]	minimum inhibitory concentration (MIC), B. cepacia [7]
CCCCCCCC(=O)O [2.5% Octanoic Acid, Octanoic Acid]	10000 µg/mL (≈ 69.3 mM)	> 10000 µg/mL	> 10000 µg/mL	2500 µg/mL (≈ 17.3 mM)	> 10000 µg/mL	7500 µg/mL (≈ 52 mM)	> 10000 µg/mL	10000 µg/mL (≈ 69.3 mM)								
COc1cc(C=O)ccc1O [20% Vanillin, Vanillin]	5000 µg/mL (≈ 32.9 mM)	10000 µg/mL (≈ 65.7 mM)	5000 µg/mL (≈ 32.9 mM)	2500 µg/mL (≈ 16.4 mM)	10000 µg/mL (≈ 65.7 mM)	2500 µg/mL (≈ 16.4 mM)	10000 µg/mL (≈ 65.7 mM)	5000 µg/mL (≈ 32.9 mM)								
OCCCO [50% 1,3-Propanediol, 1,3-Propanediol]									10,000 ppm	>10,000 ppm	>10,000 ppm	10,000 ppm	>10,000 ppm	>10,000 ppm	>10,000 ppm	10,000 ppm
